The values that follow come from patent US12636284B2, “Compositions for use in the prevention and/or treatment of intellectual disability and neurodegenerative diseases in a subject with down syndrome” (UNIVERSITA' DEGLI STUDI DI ROMA “LA SAPIENZA”, priority 2021, dated 2026).

Test [1] has as its system GABAergic transmission in Ts2Cje mice. The test is described as follows: Patch-clamp electrophysiology, CA1 neurons of hippocampal sections, Ts2Cje mice. It is filed as in vivo, mouse. The following applies: Ts2Cje mice (Ts+S) vs vehicle-treated Ts2Cje, after 21 days intranasal treatment. An excerpt: The brain sections containing the hippocampus were obtained from mice belonging to the four experimental groups (Eu Veh, Eu SITA, Ts2 Veh and Ts2 SITA) at 9 months of age after being euthanized by an overdose of isofluorane. Brains were quickly removed and placed in an ice-cold cutting solution containing the following (in mM): 124 NaCl, 3.2 KCl, 1 NaH2PO4, 2 MgCl2, 1 CaCl2), 26 NaHCO3, 10 glucose, 2 Na-pyruvate and 0.6 ascorbic acid, pH 7.4, 95% O2/5% CO2. The brain sections containing the hippocampus ([…]) were cut using a vibratome (VT1000S; Leica Microsystems) and immediately transferred to an incubation chamber filled with ACSF containing the following (in mM): 124 NaCl, 3.2 KCl, 1 NaH2PO4, 1 MgCl2, 2 CaCl2, 26 NaHCO3 and 10 glucose, pH 7.4, 95% O2/5% CO2. Brain sections were allowed to recover at 32° C. for 1 hour before being equilibrated to room temperature. For electrophysiological recordings, brain sections were transferred to a recording chamber constantly perfused with heated ACSF (32° C.) and bubbled with 95% O2/5% CO2. Subsequently, the slices were used for electrophysiological recordings. All electrophysiological recordings were performed using the patch-clamp technique in the whole-cell configuration. […] Membrane capacity and resistance were assessed in the same neurons. […]
(In general: The patch-clamp technique gives a direct electrical read-out from membranes.)

The next test has as its system gephyrin and GABAA-R. The test is described as follows: Immunofluorescence of gephyrin and GABAA-R co-localization in hippocampus CA3 and CA1. The following applies: Ts2Cje mice, confocal microscopy. The test is classed as in vivo, mouse.
For another test, the system named is GSK3b protein. The test is described as follows: GSK3b activation (pSer9/pTyr216 ratio) in primary hippocampal neurons isolated from Ts2Cje mice. The test is classed as cell-based, mouse. The settings on record: 1, 5, 10 μM for 24 hours. The procedure:
For Western blots, 20 μg of proteins from the hippocampus of mice belonging to the four experimental groups were separated by 4-15% SDS-PAGE CriterionTM […] (Bio-rad, Hercules, CAUSE). […] Therefore, the gel, once the image has been acquired, represents the total of the loaded proteins (Total Load), which will then be used to normalize the specific proteins to be examined. After electrophoresis and gel imaging, proteins are transferred via the semi-dry TransBlot Turbo apparatus (Bio-Rad Laboratories) onto nitrocellulose membranes (Bio-Rad, Hercules, CA, USA). Nitrocellulose membranes are blocked with 3% bovine serum albumin (BSA) in a solution of Tween 20-TBS and incubated overnight at 4° C. using specific primary antibodies: p([…])-GSK3B (1:1000, Santa Cruz, #sc-135653), p(S9)-GSK3β (1:1000, Cell Signaling, #5558S), GSK3β (1:1000 Abcam, #93926) and DYRK1A (1:1000, Cell Signaling, #8765S), MAPK44/42 (1:1000, Cell Signaling, #9102), p[…])-MAPK44/42 (1 1000, Cell Signaling, #9101), Akt (1:2000, Bio-Rad, # vma00253K), p(S473) Akt (1:1000, Cell Signaling, #4060S). After three washes with a T-TBS buffer solution, membranes were incubated for 1 hour at room temperature with the secondary antibodies. Secondary antibodies with peroxidase activity are anti-mouse or anti-rabbit (1:5000, Bio-rad, Hercules, CA, USA). […] Finally, the results obtained were analyzed using the ImageLab program (Bio-rad, Hercules, CA, USA). […] In order to isolate primary hippocampal neurons, hippocampi from Ts and euploid mice were mechanically dissociated in PBS (with Ca^2+ and […]) and centrifuged (3 minutes, 1100 rpm, 25° C.). Subsequently, the pellet was resuspended in 0.25% trypsin solution and centrifuged further for 3 minutes at 1100 rpm at Tamb. At this point, the cell extract was resuspended in MEM 1 culture medium (Minimum Essential Medium complemented with fetal bovine serum (FBS-1%), L-glutamine 200 mM (1%), glucose 25 mM (1%), gentamicin 0.1 mg/ml) and centrifuged for 10 minutes, 1100 rpm at 25° C. […]

Description for gephyrin and GABAA-R: Brains were placed in 4% paraformaldehyde for 24 hours. Brains were then fixed over the subsequent 48 hours in a 20% sucrose solution. Brain sections were then cut to a thickness of 15 μm using a cryostat (Leica System) and stored in an aqueous solution of PBS containing 0.02% NaN3 at 4° C. until use. Slices thus obtained were mounted on slides and were blocked and permeabilized by blocking solution (10% of normal goat serum and 0.2% Triton X-100 in TBS) for 2 hours.
The following day, the same slices were incubated with a mix of fluorescent secondary antibodies, to evaluate the co-localization of the two proteins, anti-mouse Alexa Fluor 488 nm for gephyrin and anti-rabbit Alexa Fluor 594 nm for GABA α2 (1:1500, Invitrogen, Carlsbad, California, CA, USA) for 2 hours at room temperature. The slices were then washed again and incubated with DAPI nuclear marker (1:10000, Invitrogen, Carlsbad, California, CA, USA). To subtract the non-specific background signal created by the secondary antibody, some sections were incubated only with the secondary antibody. Finally, the sample was sealed with a cover slip via fluorimount (Sigma-Aldrich, St Louis, MO, USA). The acquisition and analysis of brain sections was carried out using Leica TCS SP5× confocal microscopy and ImageJ analysis software.

As for `N[C@@H](CC(=O)N1CCn2c(nnc2C(F)(F)F)C1)Cc1cc(F)c(F)cc1F` [sitagliptin, (R)-4-oxo-4-[3-(trifluoromethyl)-5,6-dihydro[1,2,4]triazole[4,3-a]pyrazin-7(8H)-yl]-1-(2,4,5-trifluorophenyl)butan-2-amine], the “spontaneous release rate of the neurotransmitter, CA1 hippocampal neurons” value in test [1] was “completely reverts the increase in the spontaneous release rate of the neurotransmitter”. In addition, the “clusters of gephyrin and GABAA-R at the synaptic level” value in the test on gephyrin and GABAA-R is “reduction of the clusters of gephyrin and GABAA-R”. For the same compound, the “activity of the GSK3B protein in Ts2Cje neurons” value in the test on GSK3b protein is on record as “significant increase”.
